Experiments:
[1] = test system: RAW264.7 rat macrophage cell line; assay: MTT assay, normal cells RAW264.7; type: cell-based; details: rat, 48 h
Excerpt: (§1) The cytotoxicity against normal cells and cancer cells was confirmed using the MTT assay for the novel compounds KP2 to KP8 prepared in Example 1.
(§2) MTT assay method is as follows:
(§3) Normal cells (RAW264.7 rat macrophage cell line (osteoblast progenitor cell) and NIH3T3 mouse fibroblast line) and cancer cells (AGS human gastric cancer cell line, A549 human lung cancer cell line, HepG2 human liver cancer cell line, HCT116 human colon cancer cell line, PC3 human prostate cancer Cell line, Caki-1 human kidney cancer cell line, T24 human bladder cancer cell line, HT1080 human fibrosarcoma cell line, B16F10 mouse melanoma cell line) were cultured in 5% CO2 in 96-well plates containing DMEM with 10% FBS (fetal bovine serum). After incubation, KP2 to KP8 and controls (osmundacetone and 4-hydroxybenzalacetone) were added to the cell medium and incubated for 48 hours. Thereafter, 100 μl of MTT (0.5 mg/mL phosphate buffered saline) was added, followed by incubation for 2 hours. 100 μl of DMSO was added to each well, followed by incubation for 10 minutes, and the absorbance was measured at 550 nm using a microplate reader (SPCTRA MAX 340PC, Molecular Devices, USA). Absorbance is calculated by the formula below as an indicator of the number of cells that survived, and reproducibility was confirmed by three experiments.
(§4) The rate of cell proliferation (%)=OD550(sample)/OD550(control)

[2] = test system: NIH3T3 mouse fibroblast line; assay: MTT assay, normal cells NIH3T3; type: cell-based; details: for LD50 Normal cells NTH3T3: mouse, 48 h
Excerpt: as §1, §2, §3, §4

[3] = test system: AGS human gastric cancer cell line; assay: MTT assay, cancer cells AGS; type: cell-based; details: 48 hours
Excerpt: as §1, §2, §3, §4

[4] = test system: A549 human lung cancer cell line; assay: MTT assay, cancer cells A549; type: cell-based; details: for LD63 Cancer cell A549: MTT assay, 48 hours
Excerpt: as §1, §2, §3, §4

[5] = test system: HCT116 human colon cancer cell line; assay: MTT assay, cancer cells HCT116; type: cell-based; details: for LD63 Cancer cell HCT116: MTT assay, 48 hours; for inhibitory activity better than Osmundacetone: HP116 colorectal cancer cells
Excerpt: as §1, §2, §3, §4

[6] = test system: PC3 human prostate cancer Cell line; assay: MTT assay, cancer cells PC3; type: cell-based; details: 48 hours
Excerpt: as §1, §2, §3, §4

[7] = test system: Caki-1 human kidney cancer cell line; assay: MTT assay, cancer cells Caki-1; type: cell-based; details: 48 hours
Excerpt: as §1, §2, §3, §4

[8] = test system: T24 human bladder cancer cell line; assay: MTT assay, cancer cells T24; type: cell-based; details: for LD63 Cancer cell T24: MTT assay, 48 hours
Excerpt: as §1, §2, §3, §4

[9] = test system: HT1080 human fibrosarcoma cell line; assay: MTT assay, cancer cells HT1080; type: cell-based; details: 48 hours
Excerpt: as §1, §2, §3, §4

[10] = test system: B16F10 mouse melanoma cell line; assay: MTT assay, cancer cells B16F10; type: cell-based; details: 48 hours, H16F10
Excerpt: as §1, §2, §3, §4

[11] = test system: osteoclast differentiation from bone marrow cells (RANKL and M-CSF); assay: TRAP assay, osteoclast differentiation and proliferation; type: cell-based, C57BL/6 mice; details: Osteoclast; TRAP-positive multinucleated cells, mouse bone marrow cells, 6-7 days; read-out: osteoclast differentiation inhibitory activity IC50
Protocol: The specific method of the TRAP assay is as follows:
The tibia and femur were aseptically excised from 6 to 8 weeks old male C57BL/6 mice, and bone marrow cells were collected aseptically with a syringe (21G, Korea Green Cross). Bone marrow cells were suspended in 500 μl of -MEM medium (Gibco BRL Co.) containing sodium bicarbonate (2.0 g/L), streptomycin (100 mg/L) and penicillin ([…]), and aliquoted into a 48-well plate, and assay was carried out with triplicate. The progenitor cells of osteoclasts, monocytes, were isolated and treated with RANKL and M-CSF, which are differentiation promoters, to differentiate into osteoclasts within 5-7 days.
1) Sample preparation: KP2 to KP8 (0.5 μM, 1 μM, 5 μM or 10 μM), Fosamax (0.5 μM, 1 μM, 5 μM, or 10 μM) and the like were dissolved in DMSO (dimethylsulfoxide) or sterile distilled water at appropriate concentrations, respectively.
2) Sample administration: The Samples were continuously administered to the medium at 1:20 (v/v; 25 μL of sample per 500 μL of medium) from the first day of culture of bone marrow cells, and the medium was replaced at 3 days intervals.
3) Osteoclast differentiation measurement: Osteoclasts were defined as TRAP-positive multinucleated cells stained with TRAP. […] The reaction reagents were stored in the refrigerator until use.
Bone marrow cells were cultured in a medium containing differentiation factors for 6-7 days, and then the medium was removed, washed with PBS, and fixed in PBS containing 10% formalin for 2-5 minutes. After fixed for 1 minute with a 1:1 mixture of ethanol and acetone, and dried. The fixed cells were treated with TRAP staining solution for 60 minutes at 37° C. with light blocking, washed with PBS, and then stained with Hematoxylin.
Among the TRAP-positive cells in the microscope field, cells with two or more nuclei were determined as osteoclasts and the number of cells was measured.

[12] = test system: osteoblasts (mouse MC3T3-E1); assay: ALP (Alkaline phosphatase) assay, osteoblast activity; type: cell-based; details: for ALP activity / osteoblast activation versus control: 10 μM and 50 μM; for % Activation of ALP activity: MC3T3-E1, 14 days, percentage against control
Protocol: Effect of KP4 to KP6 on proliferation and differentiation of osteoblast were confirmed using ALP (Alkaline phosphatase) assay, a method for measuring osteoblast activity.
Alkaline phosphatase (ALP), which is present in the cell membranes of osteoblasts, is known as a marker of osteoblast activity and is a regulator of inorganic phosphate transport, cell division or differentiation during calcification. Therefore, ALP activity was measured to determine the effect of the compounds of the present invention on the activity of osteoblasts. ALP activity was indirectly calculated by measuring the amount of p-nitrophenol, which is produced from hydrolysis of p-nitrophenyl phosphate (pNPP, Sigma, St. Louis, Mo., USA) in which ALP act as a catalyst, using a microplate reader at 405 nm wavelength.
Specifically, osteoblasts (mouse MC3T3-E1) were aliquoted into a 96-well plate (3×10^3 cells/100 μL/well) with α-MEM medium containing ascorbic acid (50 μg/mL) and 10 mM β-glycerophosphate, a differentiation factors of osteoblast. Then, KP4 to KP6 of the present invention, and osmundacetone were added at a final concentration of 10 μM and 50 μM, followed by changing medium every 72 hours and incubating for 14 days. After 14 days, the culture medium was removed from each well, washed three times with PBS, lysed with 0.2% Nonidet P-40/10 mmol/L MgCl2, and then treated ultrasonic wave with sosonifier cell disrupter (Model W-380, Heat Systems-Ultrasonics Inc., Farmingdale, N.Y.) for 3 minutes. The cell lysate was centrifuged at 1500 g for 10 minutes and the supernatant was collected to measure ALP activity. To account for changes in ALP activity according to cell number differences, total protein levels were measured using bicinchoninic acid (BCA) protein assay kit with bovine serum albumin as the standard protein, and enzyme activity was expressed as a percentage against the control group without the compound treatment.

[13] = test system: HepG2 human liver cancer cell line; assay: MTT assay, cancer cells HepG2; type: cell-based; details: for cancer cell inhibitory activity versus Osmundacetone: HepG2 hepatocellular carcinoma cells; for LD63 Cancer cell HepG2: MTT assay, 48 hours
Excerpt: as §1, §2, §3, §4

SMILES | LD50 Normal cells RAW264.7 [1] [µM] | LD50 Normal cells NTH3T3 [2] [µM] | LD63 Cancer cell AGS [3] [µM] | LD63 Cancer cell A549 [4] [µM] | LD63 Cancer cell HCT116 [5] | LD63 Cancer cell PC3 [6] | LD63 Cancer cell Caki-1 [7] [µM] | LD63 Cancer cell T24 [8] | LD63 Cancer cell HT1080 [9] | Cytotoxicity, B16F10 cells [10] | IC50 [11] [µM] | ALP activity / osteoblast activation versus control [12] | % Activation of ALP activity ([12]; 10 μM) [%] | % Activation of ALP activity ([12]; 50 μM) [%] | LD63 Cancer cell HepG2 [13] [µM] | inhibitory activity better than Osmundacetone [5] [times] | also measured
COc1ccc(/C=C/C(C)=O)cc1O [KP5, (E)-4-(3-hydroxy-4-methoxyphenyl)-3-buten-2-one] | 261 ± 79 | >5000 | 181 ± 15 | 1890 ± 210 | 491 ± 72 µM | 291 ± 5.7 µM | 409 ± 11 | >5000 µM | 381 ± 49 µM | 441 ± 58 µM | 1 | higher ALP activity | 103 ± 1.1 | 175 ± 0.3 | – | – | –
COc1cc(/C=C/C(C)=O)ccc1O [KP4, (E)-4-(4-hydroxy-3-methoxyphenyl)-3-buten-2-one] | 399 ± 42 | >5000 | 417 ± 15 | 3010 ± 38 | 495 ± 13 µM | 223 ± 85 µM | 506 ± 13 | >5000 µM | >5,000 μM | 423 ± 39 µM | – | higher ALP activity | 113 ± 2.9 | 422 ± 6.9 | – | – | ALP activity increase compared with the control group ([12]; 50 μM): ≥ 400%; osteoblast activity compared to osmundacetone treat group ([12]; 50 μM): 1.5 times
CC(=O)/C=C/c1ccc(C)c(O)c1 [KP2, (E)-4-(3-hydroxy-4-methylphenyl)but-3-en-2-one] | 395 ± 22 | 688 ± 12 | 209 ± 5.9 | 471 ± 24 | 380 ± 32 µM | 309 ± 3.1 µM | 387 ± 57 | 1120 ± 67 µM | 256 ± 14 µM | 298 ± 27 µM | – | – | – | – | 339 ± 79 | 2 | cytotoxicity to normal cells [2]: weak cytotoxicity; cancer cell inhibitory activity versus Osmundacetone ([4]; A549 lung cancer cells): significantly better cancer cell inhibitory activity; cancer cell inhibitory activity versus Osmundacetone [13]: significantly better cancer cell inhibitory activity
NC(=O)/C=C/c1ccc(F)c(O)c1 [KP8, (E)-3-(4-fluoro-3-hydroxyphenyl)acrylamide] | >5000 | >5000 | 569 ± 4.8 | 935 ± 10 | >5,000 μM | >5,000 μM | 2990 ± 58 | 203 ± 69 µM | 1090 ± 19 µM | >5,000 μM | – | – | – | – | 1280 ± 390 | – | inhibitory activity ([8]; T24 bladder cancer cells): particularly better inhibitory activity
CC(=O)C=Cc1ccc(O)cc1 [4-Hydroxybenzalacetone, reference compound] | 294 ± 45 | 201 ± 10 | – | – | – | – | – | – | – | – | – | – | – | – | – | – | –
CC(=O)/C=C/c1ccc(O)c(F)c1 [KP6, (E)-4-(3-fluoro-4-hydroxyphenyl)-3-buten-2-one] | 1110 ± 48 | >5000 | 336 ± 3.9 | 901 ± 28 | 490 ± 38 µM | 205 ± 13 µM | 449 ± 40 | 3610 ± 130 µM | >5,000 μM | 421 ± 41 µM | 6 | no activity on activating osteoblast | 102 ± 0.2 | 100 ± 0.8 | – | – | –
NCCCC(O)(P(=O)(O)O)P(=O)(O)O [Fosamax, reference compound] | – | – | – | – | – | – | – | – | – | – | 4 | – | – | – | – | – | –
Cc1ccc(/C=C/C(N)=O)cc1O [KP7, (E)-3-(3-hydroxy-4-methylphenyl)acrylamide] | >5000 | >5000 | 329 ± 14 | 989 ± 50 | 315 ± 19 µM | 394 ± 140 µM | 361 ± 16 | 1040 ± 360 µM | 309 ± 10 µM | 1210 ± 110 µM | – | – | – | – | 379 ± 38 | 2 | cancer cell inhibitory activity versus Osmundacetone [13]: significantly better cancer cell inhibitory activity
CC(=O)/C=C/c1ccc(F)c(O)c1 [KP3, (E)-4-(4-fluoro-3-hydroxyphenyl)but-3-en-2-one] | 503 ± 57 | >5000 | 239 ± 14 | 1090 ± 46 | 389 ± 18 µM | 387 ± 48 µM | 408 ± 12 | >5,000 μM | 379 ± 10 µM | 278 ± 15 µM | – | – | – | – | 612 ± 95 | 2 | –

Reference: US11629121B2, “Benzylideneacetone derivative and use thereof” (KORPHARM CO., LTD., priority 2017, dated 2023)
